Data: patent US20240391940A1, “FUSED RING-CONTAINING COMPOUND, APPLICATION THEREOF, AND COMPOSITION CONTAINING SAME” (GenEros Biopharma Ltd., priority 2020, published 2024)

Columns and labels:
[1] = system: collagen-induced arthritis (CIA) mouse model; test: Mouse CIA model, repeated for dose exploration (10, 30, 50 mg/kg)
Excerpt: Testing was repeated for dose exploration
The above method was used.

[2] = system: Apoe KO mouse atherosclerosis model; test: Atherosclerosis model: plaques in the cardiac (left ventricular) outflow tract; assay type: in vivo, C57BL/6 Apoe KO mice; conditions: Apoe KO mice, high-fat diet; GEN1-284s 60 mpk QD oral
Method: Method: Apoe KO mice were tested for basal blood lipid levels and divided into a normal control group and a high-fat group. After 8 weeks of housing, the mice from the high-fat group were divided into 4 groups of about 8: a normal diet group (Chow), a high-fat diet model group (HFD), an Atorvastatin positive group (HFD+atorvastatin 5 mpk, QD), and a GEN1-284s group (284-60 mpk, QD). Oral administration was performed for 8 consecutive weeks, and the effect of the compound on the following indicators in Apoe KO mice was observed: 4 blood lipid tests (TC, TG, HDL-C and LDL-C), aortic plaque En-face staining, and pathological oil red staining of the cardiac outflow tract.
Mice from the groups except for the normal diet control group (Chow) were fed with high-fat feed every day for […]. From week 9, each group was orally administered solvent or a corresponding test compound, and body weight data were recorded every day for 8 consecutive weeks. After the first 8 weeks' high-fat diet, blood samples were taken and centrifuged to separate serum, and the serum was tested for blood lipid levels (TCHO, TG, LDL-C and HDL-C). The mice were randomly grouped according to the TCHO results and body weight. During the subsequent 8 weeks of administration, blood lipid tests (TCHO, TG, LDL-C and HDL-C) were run once every 4 weeks.
Mouse heart samples were fixed overnight in 4% paraformaldehyde solution and dehydrated in sucrose solution. Then, the samples were embedded with OCT (Sakura, Japan) under a stereo microscope and made into 10 μm frozen sections. The sections were stained with oil red ORO and then subjected to routine pathological examinations. Images of the outflow tract were acquired under an optical microscope at 4× magnification, and high-quality morphological observations were carried out using an eyepiece with 20× magnification. The percentage of intimal lesions in the cardiac outflow tract was calculated. The detection criteria followed the criteria for histological classification of human atherosclerotic disease, which are described in detail below:
The area of plaques in the left ventricular outflow tract was measured using a microscope, and the proportion of plaques in the left ventricular outflow tract was calculated; this value reflects the degree of stenosis in the cardiac outflow tract vessel.

[3] = CIA mice, GEN1-284s 10, 30 and 50 mg/kg qd po

O=C(Cc1ccc2ncccc2c1)N1CCC(n2c(=O)n(COP(=O)([O-])[O-])c3cccc(C(F)(F)F)c32)CC1.[Na+].[Na+] [GEN1-284 salt, (2-Oxo-3-(1-(2-(quinolin-6-yl)acetyl)piperidin-4-yl)-4-(trifluoromethyl)-2,3-dihydro-1H-benzo[d]imidazol-1-yl)methyl disodium phosphate]
Effect on the score of arthritis [1, 3]: consistently and significantly inhibit the score of arthritis | Score of arthritis compared with the tofacitinib positive group [1, 3]: no significant difference from the tofacitinib positive group | Tolerance [1, 3]: good tolerance | Significance of clinical score vs. Vehicle group (Two-way ANOVA) ([1]; CIA mice, GEN1-284s 10 mpk, Day 35): ns | Significance of clinical score vs. Vehicle group (Two-way ANOVA) ([1]; CIA mice, GEN1-284s 10 mpk, Day 38): ns | Significance of clinical score vs. Vehicle group (Two-way ANOVA) ([1]; CIA mice, GEN1-284s 10 mpk, Day 40): ns | Significance of clinical score vs. Vehicle group (Two-way ANOVA) ([1]; CIA mice, GEN1-284s 10 mpk, Day 42): * (*P < 0.05) | Significance of clinical score vs. Vehicle group (Two-way ANOVA) ([1]; CIA mice, GEN1-284s 30 mpk, Day 35): ns | Significance of clinical score vs. Vehicle group (Two-way ANOVA) ([1]; CIA mice, GEN1-284s 30 mpk, Day 38): ** (**P < 0.01) | Significance of clinical score vs. Vehicle group (Two-way ANOVA) ([1]; CIA mice, GEN1-284s 30 mpk, Day 40): * (*P < 0.05) | Significance of clinical score vs. Vehicle group (Two-way ANOVA) ([1]; CIA mice, GEN1-284s 30 mpk, Day 42): * (*P < 0.05) | Significance of clinical score vs. Vehicle group (Two-way ANOVA) ([1]; CIA mice, GEN1-284s 50 mpk, Day 35): * (*P < 0.05) | Significance of clinical score vs. Vehicle group (Two-way ANOVA) ([1]; CIA mice, GEN1-284s 50 mpk, Day 38): ** (**P < 0.01) | Significance of clinical score vs. Vehicle group (Two-way ANOVA) ([1]; CIA mice, GEN1-284s 50 mpk, Day 40): ** (**P < 0.01) | Significance of clinical score vs. Vehicle group (Two-way ANOVA) ([1]; CIA mice, GEN1-284s 50 mpk, Day 42): ** (**P < 0.01) | Changes in body weight, Mean ± SEM ([1]; G3 GEN1-284s 10 mg/kg, Day 21): 20.64 ± 0.17 | Clinical scores, Mean ± SEM ([1]; G3 GEN1-284s 10 mg/kg, Day 21): 0.0 ± 0.00 | Changes in body weight, Mean ± SEM ([1]; G3 GEN1-284s 10 mg/kg, Day 24): 20.40 ± 0.28 | Clinical scores, Mean ± SEM ([1]; G3 GEN1-284s 10 mg/kg, Day 24): 0.0 ± 0.00 | Changes in body weight, Mean ± SEM ([1]; G3 GEN1-284s 10 mg/kg, Day 26): 20.19 ± 0.41 | Clinical scores, Mean ± SEM ([1]; G3 GEN1-284s 10 mg/kg, Day 26): 0.3 ± 0.16 | Changes in body weight, Mean ± SEM ([1]; G3 GEN1-284s 10 mg/kg, Day 28): 19.34 ± 0.52 | Clinical scores, Mean ± SEM ([1]; G3 GEN1-284s 10 mg/kg, Day 28): 0.6 ± 0.18 | Changes in body weight, Mean ± SEM ([1]; G3 GEN1-284s 10 mg/kg, Day 31): 18.89 ± 0.44 | Clinical scores, Mean ± SEM ([1]; G3 GEN1-284s 10 mg/kg, Day 31): 2.5 ± 0.57 | Changes in body weight, Mean ± SEM ([1]; G3 GEN1-284s 10 mg/kg, Day 33): 18.65 ± 0.48 | Clinical scores, Mean ± SEM ([1]; G3 GEN1-284s 10 mg/kg, Day 33): 4.1 ± 0.99 | Changes in body weight, Mean ± SEM ([1]; G3 GEN1-284s 10 mg/kg, Day 35): 19.04 ± 0.47 | Clinical scores, Mean ± SEM ([1]; G3 GEN1-284s 10 mg/kg, Day 35): 5.6 ± 1.29 | Changes in body weight, Mean ± SEM ([1]; G3 GEN1-284s 10 mg/kg, Day 38): 19.54 ± 0.38 | Clinical scores, Mean ± SEM ([1]; G3 GEN1-284s 10 mg/kg, Day 38): 6.9 ± 1.55 | Changes in body weight, Mean ± SEM ([1]; G3 GEN1-284s 10 mg/kg, Day 40): 19.85 ± 0.28 | Clinical scores, Mean ± SEM ([1]; G3 GEN1-284s 10 mg/kg, Day 40): 7.5 ± 1.69 | Changes in body weight, Mean ± SEM ([1]; G3 GEN1-284s 10 mg/kg, Day 42): 19.90 ± 0.31 | Clinical scores, Mean ± SEM ([1]; G3 GEN1-284s 10 mg/kg, Day 42): 7.9 ± 1.79 | Clinical scores: significance vs. solvent control group, two-way ANOVA ([1]; G3 GEN1-284s 10 mg/kg, Day 42): * (* p <0.05) | Changes in body weight, Mean ± SEM ([1]; G4 GEN1-284s 30 mg/kg, Day 21): 20.25 ± 0.34 | Clinical scores, Mean ± SEM ([1]; G4 GEN1-284s 30 mg/kg, Day 21): 0.0 ± 0.00 | Changes in body weight, Mean ± SEM ([1]; G4 GEN1-284s 30 mg/kg, Day 24): 19.74 ± 0.33 | Clinical scores, Mean ± SEM ([1]; G4 GEN1-284s 30 mg/kg, Day 24): 0.0 ± 0.00 | Changes in body weight, Mean ± SEM ([1]; G4 GEN1-284s 30 mg/kg, Day 26): 19.79 ± 0.34 | Clinical scores, Mean ± SEM ([1]; G4 GEN1-284s 30 mg/kg, Day 26): 0.3 ± 0.16 | Changes in body weight, Mean ± SEM ([1]; G4 GEN1-284s 30 mg/kg, Day 28): 19.48 ± 0.54 | Clinical scores, Mean ± SEM ([1]; G4 GEN1-284s 30 mg/kg, Day 28): 0.6 ± 0.18 | Changes in body weight, Mean ± SEM ([1]; G4 GEN1-284s 30 mg/kg, Day 31): 19.20 ± 0.56 | Clinical scores, Mean ± SEM ([1]; G4 GEN1-284s 30 mg/kg, Day 31): 2.1 ± 0.69 | Changes in body weight, Mean ± SEM ([1]; G4 GEN1-284s 30 mg/kg, Day 33): 19.50 ± 0.61 | Clinical scores, Mean ± SEM ([1]; G4 GEN1-284s 30 mg/kg, Day 33): 3.6 ± 1.13 | Changes in body weight, Mean ± SEM ([1]; G4 GEN1-284s 30 mg/kg, Day 35): 19.68 ± 0.61 | Clinical scores, Mean ± SEM ([1]; G4 GEN1-284s 30 mg/kg, Day 35): 5.1 ± 1.25 | Changes in body weight, Mean ± SEM ([1]; G4 GEN1-284s 30 mg/kg, Day 38): 19.46 ± 0.56 | Clinical scores, Mean ± SEM ([1]; G4 GEN1-284s 30 mg/kg, Day 38): 6.0 ± 1.40 | Clinical scores: significance vs. solvent control group, two-way ANOVA ([1]; G4 GEN1-284s 30 mg/kg, Day 38): ** (** p < 0.01) | Changes in body weight, Mean ± SEM ([1]; G4 GEN1-284s 30 mg/kg, Day 40): 20.06 ± 0.53 | Clinical scores, Mean ± SEM ([1]; G4 GEN1-284s 30 mg/kg, Day 40): 6.9 ± 1.53 | Clinical scores: significance vs. solvent control group, two-way ANOVA ([1]; G4 GEN1-284s 30 mg/kg, Day 40): * (* p <0.05) | Changes in body weight, Mean ± SEM ([1]; G4 GEN1-284s 30 mg/kg, Day 42): 19.78 ± 0.44 | Clinical scores, Mean ± SEM ([1]; G4 GEN1-284s 30 mg/kg, Day 42): 8.1 ± 1.26 | Clinical scores: significance vs. solvent control group, two-way ANOVA ([1]; G4 GEN1-284s 30 mg/kg, Day 42): * (* p <0.05) | Changes in body weight, Mean ± SEM ([1]; G5 GEN1-284s 50 mg/kg, Day 21): 20.44 ± 0.30 | Clinical scores, Mean ± SEM ([1]; G5 GEN1-284s 50 mg/kg, Day 21): 0.0 ± 0.00 | Changes in body weight, Mean ± SEM ([1]; G5 GEN1-284s 50 mg/kg, Day 24): 19.66 ± 0.23 | Clinical scores, Mean ± SEM ([1]; G5 GEN1-284s 50 mg/kg, Day 24): 0.0 ± 0.00 | Changes in body weight, Mean ± SEM ([1]; G5 GEN1-284s 50 mg/kg, Day 26): 19.70 ± 0.26 | Clinical scores, Mean ± SEM ([1]; G5 GEN1-284s 50 mg/kg, Day 26): 0.4 ± 0.18 | Changes in body weight, Mean ± SEM ([1]; G5 GEN1-284s 50 mg/kg, Day 28): 19.60 ± 0.43 | Clinical scores, Mean ± SEM ([1]; G5 GEN1-284s 50 mg/kg, Day 28): 0.6 ± 0.18 | Changes in body weight, Mean ± SEM ([1]; G5 GEN1-284s 50 mg/kg, Day 31): 18.88 ± 0.52 | Clinical scores, Mean ± SEM ([1]; G5 GEN1-284s 50 mg/kg, Day 31): 1.9 ± 0.67 | Changes in body weight, Mean ± SEM ([1]; G5 GEN1-284s 50 mg/kg, Day 33): 18.91 ± 0.59 | Clinical scores, Mean ± SEM ([1]; G5 GEN1-284s 50 mg/kg, Day 33): 3.4 ± 1.15 | Changes in body weight, Mean ± SEM ([1]; G5 GEN1-284s 50 mg/kg, Day 35): 19.09 ± 0.53 | Clinical scores, Mean ± SEM ([1]; G5 GEN1-284s 50 mg/kg, Day 35): 4.8 ± 1.36 | Clinical scores: significance vs. solvent control group, two-way ANOVA ([1]; G5 GEN1-284s 50 mg/kg, Day 35): * (* p <0.05) | Changes in body weight, Mean ± SEM ([1]; G5 GEN1-284s 50 mg/kg, Day 38): 19.10 ± 0.52 | Clinical scores, Mean ± SEM ([1]; G5 GEN1-284s 50 mg/kg, Day 38): 5.9 ± 1.54 | Clinical scores: significance vs. solvent control group, two-way ANOVA ([1]; G5 GEN1-284s 50 mg/kg, Day 38): ** (** p < 0.01) | Changes in body weight, Mean ± SEM ([1]; G5 GEN1-284s 50 mg/kg, Day 40): 19.31 ± 0.43 | Clinical scores, Mean ± SEM ([1]; G5 GEN1-284s 50 mg/kg, Day 40): 6.6 ± 1.60 | Clinical scores: significance vs. solvent control group, two-way ANOVA ([1]; G5 GEN1-284s 50 mg/kg, Day 40): ** (** p < 0.01) | Changes in body weight, Mean ± SEM ([1]; G5 GEN1-284s 50 mg/kg, Day 42): 19.39 ± 0.39 | Clinical scores, Mean ± SEM ([1]; G5 GEN1-284s 50 mg/kg, Day 42): 6.9 ± 1.55 | Clinical scores: significance vs. solvent control group, two-way ANOVA ([1]; G5 GEN1-284s 50 mg/kg, Day 42): ** (** p < 0.01) | Left ventricular outflow tract plaques [2]: a certain ameliorating effect on outflow tract plaques
